The source of these data is publication PMC9376960, “Ruthenium(II)–Tris-pyrazolylmethane Complexes Inhibit Cancer Cell Growth by Disrupting Mitochondrial Calcium Homeostasis” (Journal of Medicinal Chemistry, 2022).

A short description of this series: pH of aqueous solution over time. The format is physicochemical. The settings on record: 10^–3 M H2O solution. Here is the method: Reactants and solvents were purchased from Alfa Aesar, Merck, Strem, or TCI Chemicals and were of the highest purity available. Tris(1-pyrazolyl)methane (tpm) was prepared according to the published procedure.[105] Reactions were conducted under a N2 atmosphere using standard Schlenk techniques, and all products were stored in air once isolated. All compounds are >95% pure by elemental analysis. Solvents were used as received unless otherwise stated. Toluene and diethyl ether were dried with the solvent purification system mBraun MB SPS5, while methanol was distilled from calcium hydride and isopropanol from magnesium. IR spectra of solid samples were recorded on an Agilent Cary630 FTIR spectrometer. IR spectra were processed with Spectragryph software.[106] NMR spectra were recorded at 298 K on a JEOL JNM-ECZ500R instrument equipped with a Royal HFX Broadband probe. Chemical shifts (expressed in parts per million) are referenced to the residual solvent peaks (^1H, ^13C)[107] or external standard (^31P to H3PO4). ^1H and ^13C{^1H} NMR spectra were assigned with the assistance of ^1H–^13C (gs-HSQC and gs-HMBC) correlation experiments.[108] Elemental analyses were performed on a Vario MICRO cube instrument (Elementar). Conductivity measurements were performed at 25 °C using an XS COND 8 instrument (cell constant = 1.0 cm^–1).[109],[110] pH measurements were performed with an Orion pH meter equipped with a Hamilton glass pH electrode. ESI-Q/ToF flow injection analysis was carried out using a 1200 Infinity HPLC (Agilent Technologies), coupled to a Jet Stream ESI interface (Agilent) with a Quadrupole-Time-of-Flight tandem mass spectrometer 6530 Infinity Q-TOF (Agilent Technologies).

Regarding “[RuCl(κ^3-tpm)(PPh3){NCHN(Me)(CH)2}]Cl [compound 3]”, the “pH(24h)” value (24 h) is 6.66. Besides, the “pH(48h)” value (48 h) came to 6.36. In addition, for the setting “t0”, the “pH(t0)” value was determined as 6.78.
